The numbers were not newly measured in patent US20020086849A1, “Method for introducing antisense oligonucleotides into eucaryotic cells” (priority 2000, published 2002), which cites them from elsewhere.

The structures appear in SMILES notation.

For the series the following is noted: as described in U.S. Pat. No. 5,753,613.

Regarding `CCCCCCCCCCCCCCCCCC[N+](C)(C)CCCCCCCCCCCCCCCCCC.[Br-]` [DDAB, dimethyldioctadecylammonium bromide], the transfection efficiency entry is “poor transfection efficiency”.
